Where two headings read alike, the source gives them in different places.
Key:
[1] = biological target: human orexin-2 receptor (Homo sapiens (Human), UniProt O43614); test: In vitro assay: intracellular calcium measurements (FLIPR), antagonistic activity; format: cell-based; settings: CHO cells, 3 nM orexin-A, marked values are geometric means of n = 2-6, read-out: IC50 OX2
[2] = biological target: human orexin-1 receptor (Homo sapiens (Human), UniProt O43613); test: as above; format: cell-based; settings: CHO cells, 3 nM orexin-A, marked values are geometric means of n = 2-6, read-out: IC50 OX1
[3] = compound incubation time of 10 min

human orexin-2 receptor, sequence (O43614 whole entry): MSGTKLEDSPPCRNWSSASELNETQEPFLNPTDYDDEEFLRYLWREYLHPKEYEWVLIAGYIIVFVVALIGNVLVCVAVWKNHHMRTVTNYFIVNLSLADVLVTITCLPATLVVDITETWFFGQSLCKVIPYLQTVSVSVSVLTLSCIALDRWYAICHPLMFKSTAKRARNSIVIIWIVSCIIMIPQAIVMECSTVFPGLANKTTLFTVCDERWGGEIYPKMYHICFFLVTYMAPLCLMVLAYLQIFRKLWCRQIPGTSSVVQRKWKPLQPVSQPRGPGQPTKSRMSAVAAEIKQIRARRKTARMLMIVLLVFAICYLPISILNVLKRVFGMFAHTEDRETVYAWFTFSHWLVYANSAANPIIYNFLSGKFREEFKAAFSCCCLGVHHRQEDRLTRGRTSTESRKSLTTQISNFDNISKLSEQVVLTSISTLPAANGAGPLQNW
human orexin-1 receptor, sequence (O43613 whole entry): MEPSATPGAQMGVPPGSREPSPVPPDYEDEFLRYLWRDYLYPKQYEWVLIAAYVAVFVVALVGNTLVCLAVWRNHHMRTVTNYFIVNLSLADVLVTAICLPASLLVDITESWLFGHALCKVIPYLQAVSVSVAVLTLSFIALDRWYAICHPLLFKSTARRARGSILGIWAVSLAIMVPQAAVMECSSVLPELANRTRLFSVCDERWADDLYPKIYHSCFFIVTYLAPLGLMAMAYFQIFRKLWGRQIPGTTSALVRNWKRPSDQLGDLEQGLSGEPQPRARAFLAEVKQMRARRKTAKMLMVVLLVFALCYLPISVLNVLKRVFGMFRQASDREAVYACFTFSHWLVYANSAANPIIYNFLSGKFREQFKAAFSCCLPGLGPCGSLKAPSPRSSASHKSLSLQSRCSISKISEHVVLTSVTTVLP

SMILES	IC50 [1, 3] [µM]	IC50 [2, 3] [µM]	IC50 ([1]; compound incubation 120 min) [µM]	IC50 ([2]; compound incubation 120 min) [µM]
COc1cc(F)c(C2CCCC(=O)N2Cc2ccc(OC(F)(F)F)cc2)c(F)c1 (centres unmarked) [Example 225, 6-(2,6-difluoro-4-methoxyphenyl)-1-(4-(trifluoromethoxy)benzyl)piperidin-2-one]	5.48	4.21	–	–
Cc1ccc(F)c(C2CCCC(=O)N2Cc2ccc(OC(F)(F)F)cc2)c1F (centres unmarked) [Example 226, 6-(2,6-difluoro-3-methylphenyl)-1-(4-(trifluoromethoxy)benzyl)piperidin-2-one]	2.44	5.18	–	–
O=C1CCCC(c2c(F)cccc2C(F)(F)F)N1Cc1ccc(OC(F)(F)F)cc1 (centres unmarked) [Example 227, 6-(2-fluoro-6-(trifluoromethyl)phenyl)-1-(4-(trifluoromethoxy)benzyl)piperidin-2-one]	5.9	3.5	–	–
O=C1CCCC(c2c(Cl)cccc2Cl)N1Cc1ccc(OC(F)(F)F)cc1 (centres unmarked) [Example 228, 6-(2,6-dichlorophenyl)-1-(4-(trifluoromethoxy)benzyl)piperidin-2-one]	0.456	2.97	–	–
O=C1CCCC(c2c(F)cccc2Cl)N1Cc1ccc(OC(F)(F)F)cc1 (centres unmarked) [Example 229, 6-(2-chloro-6-fluorophenyl)-1-(4-(trifluoromethoxy)benzyl)piperidin-2-one]	1.19	2.92	–	–
COc1cccc(OC(C)C)c1C1CCCC(=O)N1Cc1ccc(OC(F)(F)F)cc1 (centres unmarked) [Example 230, 6-(2-isopropoxy-6-methoxyphenyl)-1-(4-(trifluoromethoxy)benzyl)piperidin-2-one]	0.085	0.363	–	–
COc1cc(F)cc(OC)c1C1CCCC(=O)N1Cc1ccc(OC(F)(F)F)cc1 (centres unmarked) [Example 232, 6-(4-fluoro-2,6-dimethoxyphenyl)-1-(4-(trifluoromethoxy)benzyl)piperidin-2-one]	0.027	0.27	–	–
COc1cc(C)cc(OC)c1C1CCCC(=O)N1Cc1ccc(OC(F)(F)F)cc1 (centres unmarked) [Example 233, 6-(2,6-dimethoxy-4-methylphenyl)-1-(4-(trifluoromethoxy)benzyl)piperidin-2-one]	0.107	0.4	–	–
COc1cc(F)cc(OC)c1C1CCCC(=O)N1Cc1cccc(-c2ccccc2)c1 (centres unmarked) [Example 234, 1-([1,1′-biphenyl]-3-ylmethyl)-6-(4-fluoro-2,6-dimethoxyphenyl)piperidin-2-one]	–	–	0.232	0.262
COc1ccc2c(C)noc2c1C1CCCC(=O)N1Cc1cccc(-c2ccccc2)c1 (centres unmarked) [Example 235, 1-([1,1′-biphenyl]-3-ylmethyl)-6-(6-methoxy-3-methylbenzo[d]isoxazol-7-yl)piperidin-2-one]	–	–	0.194	0.288
COc1ccccc1C1CCCC(=O)N1Cc1ccc2ccccc2c1 (centres unmarked) [Example 236, 6-(2-methoxyphenyl)-1-(naphthalen-2-ylmethyl)piperidin-2-one]	0.369	1.77	–	–
COc1ccccc1C1CCCC(=O)N1Cc1ccc(OC(F)(F)F)cc1 (centres unmarked) [Example 237, 6-(2-methoxyphenyl)-1-(4-(trifluoromethoxy)benzyl)piperidin-2-one]	0.635	3.49	–	–
COc1cccc(OC)c1C1CCCC(=O)N1Cc1ccc2ccccc2c1 (centres unmarked) [Example 238, 6-(2,6-dimethoxyphenyl)-1-(naphthalen-2-ylmethyl)piperidin-2-one]	0.047	0.077	–	–
O=C1CCCC(c2ccccc2C(F)(F)F)N1Cc1ccc2ccccc2c1 (centres unmarked) [Example 239, 1-(naphthalen-2-ylmethyl)-6-(2-(trifluoromethyl)phenyl)piperidin-2-one]	3.58	6.42	–	–
COc1cccc(OC)c1C1CCCC(=O)N1Cc1ccc2c(c1)CCCN2 (centres unmarked) [Example 240, 6-(2,6-dimethoxyphenyl)-1-((1,2,3,4-tetrahydroquinolin-6-yl)methyl)piperidin-2-one]	0.596	2.04	–	–
COc1cccc(OC)c1C1CCCC(=O)N1Cc1ccc2c(ccn2C)c1 (centres unmarked) [Example 241, 6-(2,6-dimethoxyphenyl)-1-((1-methyl-1H-indol-5-yl)methyl)piperidin-2-one]	0.275	0.426	–	–

From US9242970B2 (ACTELION PHARMACEUTICALS LTD., priority 2010, dated 2016)
